Here are results for three molecules from patent US20190022101A1, “Treating Cochlear Synaptopathy” (Massachusetts Eye and Ear Infirmary, priority 2016, published 2019).

“Also recorded” adds a separate entry of the source.

One test concerns cochlear function. As to the kind of experiment: Cochlear function (ABR Wave 1, DPOAE) in vivo after synaptopathic noise exposure. The arrangement: species or system CBA/CaJ mice. The conditions noted are these: vs saline-treated controls; for ABR Wave 1 amplitudes (neural response amplitudes): 52 wk / one year post noise. How it is done:
(§1) Animals: Experiments were carried out in CBA/CaJ mice. CBA/CaJ is a useful reference for studies of both noise-induced and age-related hearing loss and to cochlear injury. […] J Assoc Res Otolaryngol. 2014 October; 15(5):721-38). With respect to aging, after normalizing for cochlear place and relative lifespan, the pace of age-related threshold elevation and SGN loss in CBA/CaJ looks remarkably like that seen in human data (Sergeyenko et al. (2013)). Thus, the strain is particularly appropriate to provide the optimization of bioassays and treatments for application to the human.
(§2) Noise Exposure: Noise exposure stimuli were generated by a waveform generator (Tucker-Davis WG1), bandpass filtered with >60 dB/octave slope (Frequency Devices), amplified (Crown D-75) and delivered (JBL compression driver) through an exponential horn extending into a small, reverberant exposure chamber. Exposures were delivered to awake animals held within small cells of a subdivided cage, one animal/cell, suspended directly below the horn of the sound-delivery loudspeaker. Noise calibration to target SPL was performed immediately before each exposure session. Sound pressure levels varied by <1 dB across all cells (Kujawa et al. (2006); Kujawa et al. (2009)).
Cochlear Function: Detailed techniques have been described in previous publications (Kujawa et al. (2006); Kujawa et al. (2009); Sergeyenko et al. (2013)). […]
Effects of noise on the cochlea and its interaction with age were assessed physiologically using outer hair cell-based distortion product otoacoustic emissions (DPOAEs) and neural-based auditory brainstem responses (ABRs, specifically, wave 1). Response thresholds and suprathreshold response growth functions were recorded in ketamine/xylazine-anesthetized mice. DPOAEs were measured in response to f1 and f2 primaries (f2/f1=1.2, f2=ABR test frequencies; L2=L1−10 dB). […] ABRs were recorded with 5 ms tone-pips (0.5 msec rise/fall, alternating polarity) for the same range of frequencies. Wave 1 thresholds and wave peak ratios were determined by custom offline analysis routines.

Test [1] deals with isolated SGNs and denervated organ of Corti. As to the kind of experiment: Afferent synaptogenesis in co-culture of isolated SGNs and denervated organ of Corti. Particulars: P4/5 CBA/CaJ co-culture 6 days, amitriptyline 0.5 uM, vs untreated controls. The class given is cell-based, mouse. How it is done: FIGS. 4A-B show amitriptyline induced cochlear afferent synaptogenesis. Isolated SGNs and denervated organ of Corti were extracted from P4/5 CBA/CaJ cochlea, the co-cultured for 6 days (see Brugeaud et al. (2014) Dev Neurobiol. April; 74(4):457-66 and Tong et al. (2013) J Assoc Res Otolaryngol. 14(3):321-9 for detailed methods). In some co-cultured explants, amitriptyline (AT; 0.5 uM) was added (4A, 4B). After culture, explants were fixed and immunostained with antibodies against neurofilament (green), CtBP2 (blue) and PSD-95 (red). Confocal images were taken in the IHC region. Newly generated afferent synapses were identified by juxtaposed CtBP2/PSD-95 puncta (yellow arrows).
The afferent innervation of hair cells is removed by physical ablation. At postnatal day four to six (P4-P6), the cochlea is dissected and transferred to Petri dishes. The inner and outer hair cells and surrounding supporting cells of the organ of Corti are separated from the SGN at the greater epithelial ridge with a surgical micro-blade, to obtain an intact sensory epithelium devoid of neurons. […] Formation of new synapses and growth of the fibers to contact hair cells is assessed by immunohistochemistry. […]

In test [2] the test system is IHC synapses and spiral ganglion cells. As to the kind of experiment: Cochlear synapse and ganglion cell counts in vivo after synaptopathic noise exposure. The arrangement: species or system CBA/CaJ mice. The conditions noted are these: for synapses / cochlear synaptic counts: one year (52 wk) after synaptopathic noise exposure. How it is done:
as §1, §2
Cochlear Tissue Processing and Analysis: Techniques for cochlear fixation, dissecting and immunostaining are described in prior publications, as are techniques for quantification of pre- and post-synaptic structures in highpower confocal z-stacks (Kujawa et al. (2009); Sergeyenko et al. (2013)). Briefly, deeply anesthetized mice were intracardially perfused, both cochleae were extracted, and the round and oval windows opened to allow intra-labyrinthine perfusion of the same fixative. One cochlea was processed for immunostained cochlear whole mounts and the other for plastic embedding. We triple stained for pre-synaptic ribbons (CtBP2), post-synaptic glutamate receptors (GluA2) and/or cochlear nerve terminals (Na+K+ATPase); myosin VIIA aided hair cell visualization. […] High-power, confocal image stacks were obtained at evenly spaced locations along the cochlear spiral, including regions of lesion focus. Given the stereotyped sectioning angle, these locations correspond roughly to the 6, 12, 22, 32, 45 and 64 kHz regions. At each locus, high-NA (1.3) objectives were used to obtain a complete confocal z-stack through the synaptic zones of all IHCs and OHCs. In each field, hair cells were counted under DIC optics, and expressed pre- and post-synaptic elements on a per hair cell basis. For afferent innervation, synaptic ribbons were counted in IHC areas, and percentages of ribbons with closely apposing glutamate receptor patches or terminals assessed, aided by the use of Amira software to enable a true 3-D analysis of the volumes of immunostained structures, and custom software to isolate the voxel space around each structure of interest.
For quantification of spiral ganglion cells, cochleae were additionally postfixed, decalcified and osmicated and embedded in EPON in a stereotyped orientation. Plastic-embedded, osmium-stained sections (10 μm) were cut in a roughly horizontal plane parallel to the modiolus. In each case, ganglion cell counts were made in the section precisely in the middle of each half turn, where the cutting angle is perpendicular to the spiral of Rosenthal's canal, at regions corresponding to the synapse counts. In each selected section, the area of Rosenthal's canal is traced, the number of ganglion cells within was counted, including only those cells with a visible nucleus and nucleolus, and the cell density is computed (cells/10,000 μm^2). All morphological analyses were performed by an individual having no knowledge of animal age or treatment, with subsets double counted by a second individual as a check for consistency. […]

The subject of another test is Spiral ganglion neurons. As to the kind of experiment: Spiral ganglion neurite growth in cultured explants. The conditions noted are these: P4 CBA/CaJ SGN explants, two days culture, neurofilament stain; imipramine 1 uM or 5 uM, BDNF 50 ng/ml; vs control. In kind it is cell-based, mouse. How it is done: Spiral ganglion neurons were isolated from P4 CBA/CaJ mouse cochlea and cultured with DMEM/F12 supplemented with N2 and B27 in a 37° C. incubator with 5% CO2 (control conditions)(FIG. 3A). For drug treatment, BDNF (50 ng/ml) (FIG. 3C) or imipramine (1 uM or 5 uM)(FIG. 3B or FIG. 3D) was added. Two days after culture, explants were immunostained with a neurofilament antibody.

As to `CN(C)CCC=C1c2ccccc2CCc2ccccc21` [amitriptyline], the “ABR Wave 1 amplitudes (neural response amplitudes)” value with cochlear function is reported as “neural response amplitudes were larger”; in the test with cochlear function (listed as AT), “larger in AT-treated ears”. Moreover, the DPOAE amplitudes entry with cochlear function (52 wk post noise) is recorded as “not DPOAE amplitudes (5C) were larger”. Moreover, the “newly generated afferent synapses (juxtaposed CtBP2/PSD-95 puncta), synapse counts” value in test [1] was “synaptogenesis; also recorded: new afferent synapses are generated”; in test [1] (listed as AT), “greater in AT-treated than in untreated controls”. In addition, in test [2] (initial results, compared to short-lived benefit of exogenously-applied neurotrophins), the “period of post-drug efficacy” value is “long period of post-drug efficacy”. In addition, the “synapses / cochlear synaptic counts” value was “cochlear synaptic and ganglion cell counts were greater” in test [2] (vs saline-treated controls); “persisting to at least one year after synaptopathic exposure” in test [2] (vs saline-treated controls, listed as AT). Further, the ganglion cell counts entry in test [2] (one year post excitotoxic noise, vs saline-treated controls) is recorded as “ganglion cell counts were greater”. Further, the synapses result in test [2] (short post-exposure times, vs saline treated controls) is listed as “more synapses than saline treated controls”. The “effects with a single dose of drug” value in test [2] (single dose, in vivo (FIG. 6)) is “could be seen even with a single dose of drug”.
For `CN(C)CCCN1c2ccccc2CCc2ccccc21` [imipramine], the “spiral ganglion neurite growth” value in the test with Spiral ganglion neurons is “promoted spiral ganglion neurite growth in a dose-dependent manner; also recorded: dose-responsive dendritic sprouting”.

B1: brain derived neurotrophic factor (protein, UniProt P23560 19-247, looked up)
Neurotrophic factor BDNF …: APMKEANIRGQGGLAYPGVRTHGTLESVNGPKAGSRGLTSLADTFEHVIEELLDEDQKVRPNEENNKDADLYTSRVMLSSQVPLEPPLLFLLEEYKNYLDAANMSMRVRRHSDPARRGELSVCDSISEWVTAADKKTAVDMSGGTVTVLEKVPVSKGQLKQYFYETKCNPMGYTKEGCRGIDKRHWNSQCRTTQSYVRALTMDSKKRIGWRFIRIDTSCVCTLTIKRGR
Take B1: in the test on Spiral ganglion neurons, the “spiral ganglion neurite growth” value is on record as “promoted neurite outgrowth”.
